Results: patent publication US20140308733A1, “METHOD FOR INDUCING GERMINATION OF SPORE FORMING BACTERIUM” (CALPIS CO., LTD., priority 2011, published 2014)

Tests used:
Type in all cases: cell-based
[1] = system: Bacillus subtilis C-3102 (FERM BP-1096); assay: Germination induction by ferulic acid, vanillic acid or p-coumaric acid at 300 ppm, turbidity change (Example 3); settings: for turbidity (630 nm): 37° C., 150 rpm
Description: In each 500 mL of distilled water heated to 70° C. was added 0.3 g of ferulic acid, vanillic acid, or p-coumaric acid. After dissolving with stirring using a stirring rod with a propeller, filtration sterilization (0.45 μm filter) was conducted to prepare each 600 ppm-solution.
Next, 500 μL aliquots of bacterial suspension of Bacillus subtilis C-3102 (FERM BP-1096) prepared by a similar method as in Example 1 were mixed with 500 μL of each of the ferulic acid, vanillic acid, and p-coumaric acid solutions, and the mixtures were adjusted to 300 ppm of ferulic acid, vanillic acid, or p-coumaric acid concentration. Defining the time point of mixing as the reaction initiation (0 min), and continuing shaking (150 rpm) at 37° C., the turbidity (630 nm) was measured at 10, 20, 30, 40, 50, 60, 90, 120, and 180 min after the reaction initiation.

[2] = system: Bacillus subtilis sp spizizenii (NBRC 101239); assay: Germination induction, change of turbidity (630 nm) of spore suspension; settings: 300 ppm; for turbidity (630 nm): 37° C., 150 rpm
Description: (§1) It is possible to determine whether spores have germinated, after measuring an OD 630 value (turbidity at 630 nm) of the liquid culture, based on decrease in the value (Literature: Microbiology, (1950), 4, 3, 330-338). Briefly, bacterial cells after culturing are washed with distilled water and diluted with distilled water to OD 630=1.0, which is then mixed with an equal volume of a germination induction solution, and the turbidity at 630 nm is measured by a UV spectrophotometer at room temperature.
(§2) TS culture media (Difco, Trypticase Soy Broth) were inoculated respectively with 11 strains listed in Table 1 and cultured at 50° C. with respect to Geobacillus stearothermophilus NBRC13737 and Aeribacillus pallidus TK6004 (FERM BP-08597), and at 37° C. with respect to the other 9 strains, until respective colonies were established. Then with respect to each of 11 strains, a loop full of a single colony was scratched by a platinum loop and suspended in 500 μL of sterilized water. In 1000 g of water was dissolved 8.0 g of a nutrient agar culture medium (Difco, Nutrient Broth), followed by high pressure steam sterilization (121° C., 15 min) to prepare a plate medium. The nutrient agar culture medium was smeared with each 100 μL of the suspension and cultured at 37° C. for 3 days.
(§3) Then, bacterial cells were suspended using a platinum loop in 500 μL of sterilized water, and the bacterial suspension was subjected to a heat shock at 65° C. for 35 min. Each 100 μL of the heat-shocked bacterial suspension and a not-heat-shocked bacterial suspension were smeared on the TS culture media respectively and cultured at 50° C. or 37° C. for 1 day. As the results of the cultures, colony formation was confirmed also with respect to the heat-shocked bacterial suspensions, to confirm that spores were formed for all of 11 strains. Further, since the bacteria were not stained by Gram staining, it was reconfirmed that spores were formed.
(§4) After confirming the spore formation, the bacterial cells were collected by a bacteria spreader, suspended in 10 mL of sterilized distilled water, and then centrifuged (8340×g, 4° C., 15 min). The supernatant was removed and thereafter the bacterial cells were washed twice with 10 mL of sterilized water. After washing, the bacterial cells were suspended in 5 mL of sterilized water, and the suspension was filtrated by sterilized Kimwipes. The filtrate was centrifuged (8340×g, 4° C., 15 min) to remove the supernatant, and the rest was adjusted to the turbidity (at 630 nm) of 1.0 with sterilized water.
(§5) After dissolving with stirring using a stirring rod with a propeller, filtration sterilization (0.45 μm filter) was conducted to prepare each 600 ppm-solution.
(§6) Five hundred (500) μL of each solution and 500 μL of each bacterial spore suspension were mixed. […] Defining the time point of mixing as the reaction initiation (0 min), and continuing shaking (150 rpm) at 37° C., the turbidity (630 nm) was measured at 10, 20, 30, 40, 50, 60, 90, 120, and 180 min after the reaction initiation.
(§7) Since the turbidity at 630 nm decreases by germination of spores, it has been known that the turbidity at 630 nm can be used to determine the germination rate.

[3] = system: Bacillus licheniformis (NBRC 12195); assay: as above; settings: 300 ppm; for turbidity (630 nm): 37° C., 150 rpm; for germination confirmed by turbidity decrease: up to 180 min
Description: as §1, §2, §3, §4, §5, §6, §7

[4] = 0 min after reaction initiation
[5] = 10 min after reaction initiation
[6] = 20 min after reaction initiation
[7] = 30 min after reaction initiation
[8] = 40 min after reaction initiation
[9] = 50 min after reaction initiation
[10] = 60 min after reaction initiation
[11] = 90 min after reaction initiation
[12] = 120 min after reaction initiation
[13] = 180 min after reaction initiation

In the case of `COc1cc(/C=C/C(=O)O)ccc1O` [Ferulic acid, ferulic acid], the “germination confirmed by turbidity decrease” value [1] is reported as “decreased, thereby to confirm germination”, the “turbidity (630 nm)” value [1, 4] is reported as 0.545 and the “turbidity (630 nm)” value [1, 5] is reported as 0.527. For the same compound, the “turbidity (630 nm)” value [1, 6] was 0.513, the “turbidity (630 nm)” value [1, 7] was 0.484 and the “turbidity (630 nm)” value [1, 8] was 0.466. The “turbidity (630 nm)” value [1, 9] was 0.449, the “turbidity (630 nm)” value [1, 10] was 0.413 and the “turbidity (630 nm)” value [1, 11] was 0.368. The “turbidity (630 nm)” value [1, 12] was 0.313, the “turbidity (630 nm)” value [1, 13] was 0.233 and the “turbidity (630 nm)” value [2, 4] was 0.534. The “turbidity (630 nm)” value [2, 5] was 0.512, the “turbidity (630 nm)” value [2, 6] was 0.495 and the “turbidity (630 nm)” value [2, 7] was 0.471. The “turbidity (630 nm)” value [2, 8] was 0.458, the “turbidity (630 nm)” value [2, 9] was 0.439 and the “turbidity (630 nm)” value [2, 10] was 0.414. For the same compound, the “turbidity (630 nm)” value [2, 11] was 0.362, the “turbidity (630 nm)” value [2, 12] was 0.306 and the “turbidity (630 nm)” value [2, 13] was 0.224. The “germination confirmed by turbidity decrease” value ([2]; up to 180 min) was “germination was confirmed”, the “turbidity (630 nm)” value [3, 4] was 0.541 and the “turbidity (630 nm)” value [3, 5] was 0.521. The “turbidity (630 nm)” value [3, 6] was 0.502, the “turbidity (630 nm)” value [3, 7] was 0.480 and the “turbidity (630 nm)” value [3, 8] was 0.449. For the same compound, the “turbidity (630 nm)” value [3, 9] was 0.430, the “turbidity (630 nm)” value [3, 10] was 0.392 and the “turbidity (630 nm)” value [3, 11] was 0.368. The “turbidity (630 nm)” value [3, 12] was 0.324, the “turbidity (630 nm)” value [3, 13] was 0.290 and the “germination confirmed by turbidity decrease” value [3] was “the turbidity decreased”.
For `COc1cc(C(=O)O)ccc1O` [Vanillic acid, vanillic acid], the “germination confirmed by turbidity decrease” value [1] was “decreased, thereby to confirm germination”, the “turbidity (630 nm)” value [1, 4] was 0.542 and the “turbidity (630 nm)” value [1, 5] was 0.525. For the same compound, the “turbidity (630 nm)” value [1, 6] was 0.506, the “turbidity (630 nm)” value [1, 7] was 0.485 and the “turbidity (630 nm)” value [1, 8] was 0.467. For the same compound, the “turbidity (630 nm)” value [1, 9] was 0.450, the “turbidity (630 nm)” value [1, 10] was 0.409 and the “turbidity (630 nm)” value [1, 11] was 0.379. For the same compound, the “turbidity (630 nm)” value [1, 12] was 0.356, the “turbidity (630 nm)” value [1, 13] was 0.282 and the “turbidity (630 nm)” value [2, 4] was 0.529. The “turbidity (630 nm)” value [2, 5] was 0.520, the “turbidity (630 nm)” value [2, 6] was 0.516 and the “turbidity (630 nm)” value [2, 7] was 0.512. The “turbidity (630 nm)” value [2, 8] was 0.510, the “turbidity (630 nm)” value [2, 9] was 0.510 and the “turbidity (630 nm)” value [2, 10] was 0.502. For the same compound, the “turbidity (630 nm)” value [2, 11] was 0.488, the “turbidity (630 nm)” value [2, 12] was 0.479 and the “turbidity (630 nm)” value [2, 13] was 0.474. The “turbidity (630 nm)” value [3, 4] was 0.536, the “turbidity (630 nm)” value [3, 5] was 0.513 and the “turbidity (630 nm)” value [3, 6] was 0.483. The “turbidity (630 nm)” value [3, 7] was 0.438, the “turbidity (630 nm)” value [3, 8] was 0.393 and the “turbidity (630 nm)” value [3, 9] was 0.324. For the same compound, the “turbidity (630 nm)” value [3, 10] was 0.278, the “turbidity (630 nm)” value [3, 11] was 0.196 and the “turbidity (630 nm)” value [3, 12] was 0.151. The “turbidity (630 nm)” value [3, 13] was 0.092 and the “germination confirmed by turbidity decrease” value [3] was “the turbidity decreased”.
